Results taken from PubChem BioAssay AID2060626 (Molecular Pharmacology Branch, DTP, NCI, 2025).
pIC50: −log10 of the molar value. Values joined by “and” are separate entries in the source; they are usually repeats but may differ in a detail not shown here. Equal values may be shown once.

Test system: 168753-222-R-J1-PDC complex spheroid viability
Experiment: Anticancer human tumor 168753-222-R-J1-PDC patient-derived bladder carcinoma cell line growth inhibition [CLK]
Conditions: for viability, T/C: stronger effect = lower value
Method in brief: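 Multi-cell-type spheroids combined patient-derived tumor cells with HUVEC endothelial cells and human mesenchymal stem cells. Paired agents were dosed in half-log steps down from about clinical Cmax, or from 10 microM where Cmax was unknown.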

[1] = curve of first compound, second compound 0.0316 µM
[2] = curve of first compound, second compound 0.1 µM
[3] = curve of first compound, second compound 0.316 µM
[4] = curve of first compound, second compound 1 µM
[5] = curve of first compound, second compound 3.16 µM
[6] = curve of first compound, second compound 10 µM
[7] = second compound 0.0316 µM, first compound 0.0316 µM
[8] = second compound 0.0316 µM, first compound 0.1 µM
[9] = second compound 0.0316 µM, first compound 0.316 µM
[10] = second compound 0.0316 µM, first compound 1 µM
[11] = second compound 0.0316 µM, first compound 3.16 µM
[12] = second compound 0.0316 µM, first compound 10 µM
[13] = second compound 0.1 µM, first compound 0.0316 µM
[14] = second compound 0.1 µM, first compound 0.1 µM
[15] = second compound 0.1 µM, first compound 0.316 µM
[16] = second compound 0.1 µM, first compound 1 µM
[17] = second compound 0.1 µM, first compound 3.16 µM
[18] = second compound 0.1 µM, first compound 10 µM
[19] = second compound 0.316 µM, first compound 0.0316 µM
[20] = second compound 0.316 µM, first compound 0.1 µM
[21] = second compound 0.316 µM, first compound 0.316 µM
[22] = second compound 0.316 µM, first compound 1 µM
[23] = second compound 0.316 µM, first compound 3.16 µM
[24] = second compound 0.316 µM, first compound 10 µM
[25] = second compound 1 µM, first compound 0.0316 µM
[26] = second compound 1 µM, first compound 0.1 µM
[27] = second compound 1 µM, first compound 0.316 µM
[28] = second compound 1 µM, first compound 1 µM
[29] = second compound 1 µM, first compound 3.16 µM
[30] = second compound 1 µM, first compound 10 µM
[31] = second compound 3.16 µM, first compound 0.0316 µM
[32] = second compound 3.16 µM, first compound 0.1 µM
[33] = second compound 3.16 µM, first compound 0.316 µM
[34] = second compound 3.16 µM, first compound 1 µM
[35] = second compound 3.16 µM, first compound 3.16 µM
[36] = second compound 3.16 µM, first compound 10 µM
[37] = second compound 10 µM, first compound 0.0316 µM
[38] = second compound 10 µM, first compound 0.1 µM
[39] = second compound 10 µM, first compound 0.316 µM
[40] = second compound 10 µM, first compound 1 µM
[41] = second compound 10 µM, first compound 3.16 µM
[42] = second compound 10 µM, first compound 10 µM
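Further: viability measured after seven days of drug exposure.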
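Wherever viability, T/C is given: luminescence signal used as surrogate for viable cell amount; 100% = DMSO vehicle control wells.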

Compound: CC1(C)CCC(CN2CCN(c3ccc(C(=O)NS(=O)(=O)c4ccc(NCC5CCOCC5)c([N+](=O)[O-])c4)c(Oc4cnc5[nH]ccc5c4)c3)CC2)=C(c2ccc(Cl)cc2)C1 + CNC(=O)c1ccc(Nc2nc(OC3CCCC3)c3c(-c4ccc5nc(C)oc5c4)c[nH]c3n2)c(OC)c1
- pIC50 [1]: 5.19
- pIC50 [2]: 5.24
- pIC50 [3]: 5.34
- pIC50 [4]: 7.34
- pIC50 [5]: > 7.50
- pIC50 [6]: > 7.50
- viability, T/C [7]: 109%
- viability, T/C [8]: 112%
- viability, T/C [9]: 104%
- viability, T/C [10]: 109%
- viability, T/C [11]: 97%
- viability, T/C [12]: 22%
- viability, T/C [13]: 99.7%
- viability, T/C [14]: 99.5%
- viability, T/C [15]: 101%
- viability, T/C [16]: 95.7%
- viability, T/C [17]: 90.2%
- viability, T/C [18]: 14%
- viability, T/C [19]: 75.2%
- viability, T/C [20]: 77%
- viability, T/C [21]: 79.6%
- viability, T/C [22]: 80.3%
- viability, T/C [23]: 66.7%
- viability, T/C [24]: 12.6%
- viability, T/C [25]: 50.4%
- viability, T/C [26]: 49.5%
- viability, T/C [27]: 38.4%
- viability, T/C [28]: 25.9%
- viability, T/C [29]: 27.2%
- viability, T/C [30]: 13.8%
- viability, T/C [31]: 23.3%
- viability, T/C [32]: 23.1%
- viability, T/C [33]: 19.5%
- viability, T/C [34]: 20%
- viability, T/C [35]: 17.6%
- viability, T/C [36]: 23.9%
- viability, T/C [37]: 18.1%
- viability, T/C [38]: 17.3%
- viability, T/C [39]: 17.6%
- viability, T/C [40]: 17.3%
- viability, T/C [41]: 15.8%
- viability, T/C [42]: 20.4%

Compound: CC1COCCN1c1cc(C2(S(C)(=N)=O)CC2)nc(-c2ccnc3[nH]ccc23)n1 (stereo not given) + CNC(=O)c1ccc(Nc2nc(OC3CCCC3)c3c(-c4ccc5nc(C)oc5c4)c[nH]c3n2)c(OC)c1
- pIC50 [1]: < 5.00
- pIC50 [2]: 5.08
- pIC50 [3]: 5.53
- pIC50 [4]: > 7.50
- pIC50 [5]: > 7.50
- pIC50 [6]: > 7.50
- viability, T/C [7]: 111%
- viability, T/C [8]: 110%
- viability, T/C [9]: 102%
- viability, T/C [10]: 103%
- viability, T/C [11]: 90.8%
- viability, T/C [12]: 52.4%
- viability, T/C [13]: 101%
- viability, T/C [14]: 102%
- viability, T/C [15]: 104%
- viability, T/C [16]: 108%
- viability, T/C [17]: 73.8%
- viability, T/C [18]: 45.3%
- viability, T/C [19]: 79.8%
- viability, T/C [20]: 72.2%
- viability, T/C [21]: 74.5%
- viability, T/C [22]: 58.2%
- viability, T/C [23]: 51.3%
- viability, T/C [24]: 30.9%
- viability, T/C [25]: 47.8%
- viability, T/C [26]: 44.8%
- viability, T/C [27]: 38.5%
- viability, T/C [28]: 37.3%
- viability, T/C [29]: 24.8%
- viability, T/C [30]: 18.1%
- viability, T/C [31]: 31.5%
- viability, T/C [32]: 20.9%
- viability, T/C [33]: 19.4%
- viability, T/C [34]: 18.8%
- viability, T/C [35]: 17.2%
- viability, T/C [36]: 14.2%
- viability, T/C [37]: 19.6%
- viability, T/C [38]: 23%
- viability, T/C [39]: 20.6%
- viability, T/C [40]: 16.1%
- viability, T/C [41]: 15.3%
- viability, T/C [42]: 9.89%

Compound: CN1CCN(c2cc(C(=O)Nc3cc4cc(-c5cnn(C)c5)ccc4cn3)ccn2)CC1
- viability, T/C (compound 0.316 µM): 10.2% [middle of 12 runs]
- viability, T/C (compound 1 µM): 1.32% [middle of 11 runs]
- viability, T/C (compound 3.16 µM): 0.5% [middle of 11 runs]
- viability, T/C (compound 10 µM): 0.32% [middle of 10 runs]
- IC50 (compound alone, run of 07/31/2023): 102 nM [middle of 12 runs]

Compound: CC(C)CC(NC(=O)C(Cc1ccccc1)NC(=O)c1cnccn1)B(O)O (stereo not given) + CN1CCN(c2cc(C(=O)Nc3cc4cc(-c5cnn(C)c5)ccc4cn3)ccn2)CC1
- pIC50 [1]: 8.69
- pIC50 [2]: 8.90
- pIC50 [3]: > 9.02
- pIC50 [4]: > 9.02
- pIC50 [5]: > 9.02
- pIC50 [6]: > 9.02
- viability, T/C (second compound 0.0316 µM, first compound 0.000949 µM): 110%
- viability, T/C (second compound 0.0316 µM, first compound 0.003 µM): 18.9%
- viability, T/C (second compound 0.0316 µM, first compound 0.00949 µM): 0.44%
- viability, T/C (second compound 0.0316 µM, first compound 0.03 µM): 0.32%
- viability, T/C (second compound 0.0316 µM, first compound 0.0949 µM): 0.25%
- viability, T/C (second compound 0.0316 µM, first compound 0.3 µM): 1.03%
- viability, T/C (second compound 0.1 µM, first compound 0.000949 µM): 59.4%
- viability, T/C (second compound 0.1 µM, first compound 0.003 µM): 20.9%
- viability, T/C (second compound 0.1 µM, first compound 0.00949 µM): 0.36%
- viability, T/C (second compound 0.1 µM, first compound 0.03 µM): 0.27%
- viability, T/C (second compound 0.1 µM, first compound 0.0949 µM): 0.22%
- viability, T/C (second compound 0.1 µM, first compound 0.3 µM): 0.23%
- viability, T/C (second compound 0.316 µM, first compound 0.000949 µM): 11.4%
- viability, T/C (second compound 0.316 µM, first compound 0.003 µM): 11.6%
- viability, T/C (second compound 0.316 µM, first compound 0.00949 µM): 0.29%
- viability, T/C (second compound 0.316 µM, first compound 0.03 µM): 0.17%
- viability, T/C (second compound 0.316 µM, first compound 0.0949 µM): 0.2%
- viability, T/C (second compound 0.316 µM, first compound 0.3 µM): 0.16%
- viability, T/C (second compound 1 µM, first compound 0.000949 µM): 0.26%
- viability, T/C (second compound 1 µM, first compound 0.003 µM): 0.22%
- viability, T/C (second compound 1 µM, first compound 0.00949 µM): 0.57%
- viability, T/C (second compound 1 µM, first compound 0.03 µM): 0.12%
- viability, T/C (second compound 1 µM, first compound 0.0949 µM): 0.15%
- viability, T/C (second compound 1 µM, first compound 0.3 µM): 0.15%
- viability, T/C (second compound 3.16 µM, first compound 0.000949 µM): 1.04%
- viability, T/C (second compound 3.16 µM, first compound 0.003 µM): 0.22%
- viability, T/C (second compound 3.16 µM, first compound 0.00949 µM): 0.34%
- viability, T/C (second compound 3.16 µM, first compound 0.03 µM): 0.09%
- viability, T/C (second compound 3.16 µM, first compound 0.0949 µM): 1.55%
- viability, T/C (second compound 3.16 µM, first compound 0.3 µM): 0.25%
- viability, T/C (second compound 10 µM, first compound 0.000949 µM): 0.63%
- viability, T/C (second compound 10 µM, first compound 0.003 µM): 0.26%
- viability, T/C (second compound 10 µM, first compound 0.00949 µM): 0.23%
- viability, T/C (second compound 10 µM, first compound 0.03 µM): 0.18%
- viability, T/C (second compound 10 µM, first compound 0.0949 µM): 1.16%
- viability, T/C (second compound 10 µM, first compound 0.3 µM): 1.04%

Compound: O=c1[nH]cc(F)c(=O)[nH]1 + CN1CCN(c2cc(C(=O)Nc3cc4cc(-c5cnn(C)c5)ccc4cn3)ccn2)CC1
- pIC50 [1]: 5.05
- pIC50 [2]: 6.80
- pIC50 [3]: > 7.50
- pIC50 [4]: > 7.50
- pIC50 [5]: > 7.50
- pIC50 [6]: > 7.50
- viability, T/C [7]: 100%
- viability, T/C [8]: 91.9%
- viability, T/C [9]: 78.8%
- viability, T/C [10]: 108%
- viability, T/C [11]: 95.4%
- viability, T/C [12]: 45.2%
- viability, T/C [13]: 72%
- viability, T/C [14]: 62.8%
- viability, T/C [15]: 15.2%
- viability, T/C [16]: 45.6%
- viability, T/C [17]: 36.3%
- viability, T/C [18]: 29%
- viability, T/C [19]: 10.5%
- viability, T/C [20]: 10%
- viability, T/C [21]: 8.13%
- viability, T/C [22]: 8.71%
- viability, T/C [23]: 8.45%
- viability, T/C [24]: 8.48%
- viability, T/C [25]: 0.22%
- viability, T/C [26]: 0.19%
- viability, T/C [27]: 0.15%
- viability, T/C [28]: 0.18%
- viability, T/C [29]: 0.33%
- viability, T/C [30]: 0.58%
- viability, T/C [31]: 0.97%
- viability, T/C [32]: 0.11%
- viability, T/C [33]: 0.09%
- viability, T/C [34]: 0.19%
- viability, T/C [35]: 1.18%
- viability, T/C [36]: 1.57%
- viability, T/C [37]: 0.09%
- viability, T/C [38]: 0.24%
- viability, T/C [39]: 0.24%
- viability, T/C [40]: 0.82%
- viability, T/C [41]: 1.41%
- viability, T/C [42]: 1.15%

Compound: O=C(c1cc(Cc2n[nH]c(=O)c3ccccc23)ccc1F)N1CCN(C(=O)C2CC2)CC1
- viability, T/C (compound 0.0316 µM): 76.1% and 102%
- viability, T/C (compound 0.1 µM): 97.4% and 102%
- viability, T/C (compound 0.316 µM): 93.7% and 95.2%
- viability, T/C (compound 1 µM): 62% and 95.9%
- viability, T/C (compound 3.16 µM): 46.3% and 107%
- viability, T/C (compound 10 µM): 70.3% and 93.2%
- pIC50 (curve of compound): < 5.00
